Reference: paper PMC4138103 (PLoS ONE, 2014)
Where two headings read alike, the source gives them in different places.

Test system: Sprague-Dawley rats
Experiment: Retinoid analyses in liver, serum and kidney
Type: in vivo, Rattus norvegicus
Settings: for CED, Kidney all-trans RA amount / CED, Kidney all-trans RA concentration / CED, Kidney retinol amount / CED, Kidney retinol concentration / CED, Liver retinol amount / CED, Liver retinol concentration / CED, Liver retinyl esters amount / CED, Liver retinyl esters concentration / CED, Serum retinol concentration / CED-L, Kidney all-trans RA amount / CED-L, Kidney all-trans RA concentration / CED-L, Kidney retinol amount / CED-L, Kidney retinol concentration / CED-L, Liver retinol amount / CED-L, Liver retinol concentration / CED-L, Liver retinyl esters amount / CED-L, Liver retinyl esters concentration / CED-L, Serum retinol concentration / CED, Liver 9c-4o-13,14-dh-RA amount / CED, Liver 9c-4o-13,14-dh-RA concentration / CED-L, Liver 9c-4o-13,14-dh-RA amount / CED-L, Liver 9c-4o-13,14-dh-RA concentration / CED, Liver all-trans RA amount / CED, Liver all-trans RA concentration / CED-L, Liver all-trans RA amount / CED-L, Liver all-trans RA concentration / CED, Kidney retinyl esters amount / CED, Kidney retinyl esters concentration / CED-L, Kidney retinyl esters amount / CED-L, Kidney retinyl esters concentration: adipose tissue concentration based; for Emax: Rattus norvegicus, controls vs high dose according to the fitted model
Protocol: Retinoids in liver, serum, and kidney were analyzed according to Schmidt et al.. The polar retinoids 9-cis-retinoic acid (9-cis-RA), 13-cis-retinoic acid (13-cis-RA), 13-cis-4-oxo-retinoic acid (13-cis-4-o-RA), 9-cis-4-oxo-13,14-dihydro-retinoic acid (9-cis-4-o-13,14-dh-RA), all-trans retinoic acid (all-trans RA) and the apolar retinoids retinol and retinyl palmitate were extracted by a single liquid-extraction, separated from each other via solid-phase extraction using an aminopropyl phase, and then injected onto two different HPLC systems that were coupled with UV detection. […] The limits of detection (LOD) for all-trans RA and 9c-4o-13,14-dh-RA were 0.7 and 1.0 pmol/g tissue, and 0.3 and 0.6 pmol/ml serum, respectively. Retinol and retinyl palmitate were separated on a J'sphere ODS-H80 (4.6×150 mm, 4 µm particle size) obtained from YMC (Schermbeck, Germany), and were detected at 325 nm. The LOD for retinol and retinyl palmitate were 5.6 and 5.5 pmol/g tissue, and 4.2 and 4.2 pmol/ml serum, respectively.
Data were also analyzed using the BMD method, which is based on dose-response modeling of the full data set using a nested family of exponential and Hill models. The analyses were done on data of males and females combined, using sex as a covariate. […] In that case, different Critical Effect Doses (CEDs) and CEDs at the lowest bound of the confidence interval (CED-L) were generated for each sex. If no difference between sexes is detected, a CED and CED-Ls for the combined data is generated. However, this was also done if the curve fits are close, and separate analyses for males and females were then performed manually. CEDs and CED-Ls were calculated at the predefined Critical Effect Size (CES) of 5% (EFSA standard) or 10%.

## Clc1cc(Cl)c(-c2cc(Cl)c(Cl)c(Cl)c2Cl)cc1Cl [PCB 180, 2,2′,3′,4,4′,5,5′-heptachlorobiphenyl]
F, CES 5%, model E2
  CED, Kidney all-trans RA amount: 3290 µg/g lipid
  CED, Kidney all-trans RA concentration: 2930 µg/g lipid
  CED, Kidney retinol amount: 2240 µg/g lipid
  CED, Kidney retinol concentration: 2060 µg/g lipid
  CED, Liver retinol amount: 2840 µg/g lipid
  CED, Liver retinol concentration: 1000 µg/g lipid
  CED, Liver retinyl esters amount: 1620 µg/g lipid
  CED, Liver retinyl esters concentration: 793 µg/g lipid
  CED, Serum retinol concentration: 2470 µg/g lipid
  CED-L, Kidney all-trans RA amount: 2092 µg/g lipid
  CED-L, Kidney all-trans RA concentration: 2052 µg/g lipid
  CED-L, Kidney retinol amount: 1398 µg/g lipid
  CED-L, Kidney retinol concentration: 1346 µg/g lipid
  CED-L, Liver retinol amount: 1476 µg/g lipid
  CED-L, Liver retinol concentration: 762 µg/g lipid
  CED-L, Liver retinyl esters amount: 1206 µg/g lipid
  CED-L, Liver retinyl esters concentration: 670 µg/g lipid
  CED-L, Serum retinol concentration: 1521 µg/g lipid
F, CES 5%, model E4
  CED, Liver 9c-4o-13,14-dh-RA amount: 59.6 µg/g lipid
  CED, Liver 9c-4o-13,14-dh-RA concentration: 55.5 µg/g lipid
  CED-L, Liver 9c-4o-13,14-dh-RA amount: 37.4 µg/g lipid
  CED-L, Liver 9c-4o-13,14-dh-RA concentration: 39.6 µg/g lipid
F, CES 10%, model E2
  CED, Kidney all-trans RA amount: 6430 µg/g lipid
  CED, Kidney all-trans RA concentration: 5720 µg/g lipid
  CED, Kidney retinol amount: 4370 µg/g lipid
  CED, Kidney retinol concentration: 4030 µg/g lipid
  CED, Liver retinol amount: 5820 µg/g lipid
  CED, Liver retinol concentration: 2060 µg/g lipid
  CED, Liver retinyl esters amount: 3300 µg/g lipid
  CED, Liver retinyl esters concentration: 1630 µg/g lipid
  CED, Serum retinol concentration: 4820 µg/g lipid
  CED-L, Kidney all-trans RA amount: 4088 µg/g lipid
  CED-L, Kidney all-trans RA concentration: 4009 µg/g lipid
  CED-L, Kidney retinol amount: 2731 µg/g lipid
  CED-L, Kidney retinol concentration: 2630 µg/g lipid
  CED-L, Liver retinol amount: 3032 µg/g lipid
  CED-L, Liver retinol concentration: 1565 µg/g lipid
  CED-L, Liver retinyl esters amount: 2477 µg/g lipid
  CED-L, Liver retinyl esters concentration: 1375 µg/g lipid
  CED-L, Serum retinol concentration: 2970 µg/g lipid
F, CES 10%, model E4
  CED, Liver 9c-4o-13,14-dh-RA amount: 124 µg/g lipid
  CED, Liver 9c-4o-13,14-dh-RA concentration: 115 µg/g lipid
  CED-L, Liver 9c-4o-13,14-dh-RA amount: 77.9 µg/g lipid
  CED-L, Liver 9c-4o-13,14-dh-RA concentration: 82.1 µg/g lipid
M, CES 5%, model E2
  CED, Kidney retinol amount: 897 µg/g lipid
  CED, Kidney retinol concentration: 863 µg/g lipid
  CED, Liver all-trans RA amount: 95.1 µg/g lipid
  CED, Liver all-trans RA concentration: 1920 µg/g lipid
  CED, Liver retinol amount: 1860 µg/g lipid
  CED, Liver retinyl esters amount: 620 µg/g lipid
  CED-L, Kidney retinol amount: 638 µg/g lipid
  CED-L, Kidney retinol concentration: 640 µg/g lipid
  CED-L, Liver all-trans RA amount: 36.8 µg/g lipid
  CED-L, Liver all-trans RA concentration: 1143 µg/g lipid
  CED-L, Liver retinol amount: 1111 µg/g lipid
  CED-L, Liver retinyl esters amount: 525 µg/g lipid
M, CES 5%, model E4
  CED, Kidney retinyl esters amount: 38.8 µg/g lipid
  CED, Kidney retinyl esters concentration: 42.2 µg/g lipid
  CED, Liver retinol concentration: 31.2 µg/g lipid
  CED, Liver retinyl esters concentration: 108 µg/g lipid
  CED-L, Kidney retinyl esters amount: 12.5 µg/g lipid
  CED-L, Kidney retinyl esters concentration: 13.6 µg/g lipid
  CED-L, Liver retinol concentration: 18.8 µg/g lipid
  CED-L, Liver retinyl esters concentration: 60.1 µg/g lipid
M, CES 10%, model E2
  CED, Kidney retinol amount: 1750 µg/g lipid
  CED, Kidney retinol concentration: 1690 µg/g lipid
  CED, Liver all-trans RA amount: 196 µg/g lipid
  CED, Liver all-trans RA concentration: 3750 µg/g lipid
  CED, Liver retinol amount: 3820 µg/g lipid
  CED, Liver retinyl esters amount: 1270 µg/g lipid
  CED-L, Kidney retinol amount: 1244 µg/g lipid
  CED-L, Kidney retinol concentration: 1250 µg/g lipid
  CED-L, Liver all-trans RA amount: 76 µg/g lipid
  CED-L, Liver all-trans RA concentration: 2233 µg/g lipid
  CED-L, Liver retinol amount: 2282 µg/g lipid
  CED-L, Liver retinyl esters amount: 1078 µg/g lipid
M, CES 10%, model E4
  CED, Kidney retinyl esters amount: 78.3 µg/g lipid
  CED, Kidney retinyl esters concentration: 85.2 µg/g lipid
  CED, Liver retinol concentration: 66.6 µg/g lipid
  CED, Liver retinyl esters concentration: 225 µg/g lipid
  CED-L, Kidney retinyl esters amount: 25.2 µg/g lipid
  CED-L, Kidney retinyl esters concentration: 27.5 µg/g lipid
  CED-L, Liver retinol concentration: 40.0 µg/g lipid
  CED-L, Liver retinyl esters concentration: 126 µg/g lipid
F, model E2, read-out: Maximum response, Kidney all-trans RA amount
  Emax: 18.2%
F, model E2, read-out: Maximum response, Kidney all-trans RA concentration
  Emax: 20.7%
F, model E2, read-out: Maximum response, Kidney retinol amount
  Emax: 28%
F, model E2, read-out: Maximum response, Kidney retinol concentration
  Emax: 30.7%
F, model E2, read-out: Maximum response, Liver retinol amount
  Emax: -18.5%
F, model E2, read-out: Maximum response, Liver retinol concentration
  Emax: -43.9%
F, model E2, read-out: Maximum response, Liver retinyl esters amount
  Emax: -30.1%
F, model E2, read-out: Maximum response, Liver retinyl esters concentration
  Emax: -51.9%
F, model E2, read-out: Maximum response, Serum retinol concentration
  Emax: 25%
